In US20210300912A1 (Ikena Oncology, Inc., priority 2019, published 2021):
Where two headings read alike, the source gives them in different places.

Key:
AHR [1] = biological target: T1, AHR (Homo sapiens, UniProt P35869); assay: DRE-Luciferase Reporter Assay, HepG2, agonist; format: cell-based; conditions: HepG2 cells, agonist mode
T1 construct: endogenous in cells; host or cells: HepG2 (human), DRE-luciferase reporter stably or transiently transfected
T1 sequence (P35869 11-848): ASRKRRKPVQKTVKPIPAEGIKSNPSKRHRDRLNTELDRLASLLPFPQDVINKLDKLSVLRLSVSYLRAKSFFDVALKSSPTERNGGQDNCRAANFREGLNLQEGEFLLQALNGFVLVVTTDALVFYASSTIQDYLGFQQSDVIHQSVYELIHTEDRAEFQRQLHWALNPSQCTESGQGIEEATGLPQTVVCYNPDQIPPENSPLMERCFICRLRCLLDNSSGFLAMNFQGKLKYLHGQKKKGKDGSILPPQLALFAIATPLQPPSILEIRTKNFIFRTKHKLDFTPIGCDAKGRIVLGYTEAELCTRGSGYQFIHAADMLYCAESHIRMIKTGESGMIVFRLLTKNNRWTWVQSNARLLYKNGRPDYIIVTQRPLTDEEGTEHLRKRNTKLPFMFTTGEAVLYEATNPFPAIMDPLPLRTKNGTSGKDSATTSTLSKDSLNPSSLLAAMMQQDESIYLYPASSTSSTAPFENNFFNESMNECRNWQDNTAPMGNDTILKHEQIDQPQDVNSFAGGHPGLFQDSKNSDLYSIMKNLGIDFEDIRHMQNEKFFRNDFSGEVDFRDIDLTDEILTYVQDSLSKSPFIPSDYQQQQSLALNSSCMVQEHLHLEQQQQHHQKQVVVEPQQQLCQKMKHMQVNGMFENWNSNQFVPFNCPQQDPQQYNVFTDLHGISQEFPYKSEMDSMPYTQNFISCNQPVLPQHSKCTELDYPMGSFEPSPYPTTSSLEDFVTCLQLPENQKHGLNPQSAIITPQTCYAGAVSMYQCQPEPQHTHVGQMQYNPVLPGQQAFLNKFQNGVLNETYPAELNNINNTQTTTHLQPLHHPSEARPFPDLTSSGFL
Protocol: (§1) AHR binds to Dioxin Responsive Elements (DRE) upstream of genes that it activates. One measure of AHR activity is activation of a reporter gene, such as luciferase, downstream of one or multiple DRE elements. Luciferase activity will reflect activation and inhibition of AHR in the cells expressing this reporter.
(§2) Murine Hepa1-6 or Hepa-1c1c7 or other murine cell line with a DRE-luciferase reporter either stably or transiently transfected are plated in media in plates (96-well, 384-well or other plates) and incubated overnight at 37 C in a CO2 incubator. Likewise, human HepG2 or other human cell line with a DRE-luciferase reporter either stably or transiently transfected are plated in media in plates (96-well, 384-well or other plates) and incubated overnight at 37 C in a CO2 incubator.
(§3) The next day, an AHR agonist compound is added. Cells are incubated for 6, 16 or 24 hours or another time point and then lysed for determination of luciferase activity as a read-out of the AHR activation. Luciferase can be measured with a commercial kit such as the Promega Luciferase kit or any kit or reagents that provide the luciferin substrate for measuring luciferase activity. The level of luciferase with only activating ligand (e.g. such as TCDD, kynurenine, ITE (2-(1H-indole-3-ylcarbonyl)-4-thiazolecarboxylic methyl ester), VAF347, BNF (beta-naphthoflavone), ICZ (6-formylindolo(3,2-b) carbazole or other AHR ligands) added is the maximum signal while the luciferase with no ligand is the minimum signal. EC50s can be determined as the concentration which activates half of the maximum luciferase activity.

AHR [2] = biological target: T2, AHR (Mus musculus, UniProt P30561); assay: P450 CYP1A1 Luciferase Assay, Hepa1.6, agonist; format: cell-based, murine; conditions: Hepa1.6 cells, CYP1A1 enzyme activity read-out, agonist mode; Table 2
T2 construct: endogenous in cells; host or cells: Hepa1-6 / Hepa1.6 (murine hepatoma); DRE-luciferase reporter transfected in A3, no transfection in A2
T2 sequence (P30561 10-805 limits assumed): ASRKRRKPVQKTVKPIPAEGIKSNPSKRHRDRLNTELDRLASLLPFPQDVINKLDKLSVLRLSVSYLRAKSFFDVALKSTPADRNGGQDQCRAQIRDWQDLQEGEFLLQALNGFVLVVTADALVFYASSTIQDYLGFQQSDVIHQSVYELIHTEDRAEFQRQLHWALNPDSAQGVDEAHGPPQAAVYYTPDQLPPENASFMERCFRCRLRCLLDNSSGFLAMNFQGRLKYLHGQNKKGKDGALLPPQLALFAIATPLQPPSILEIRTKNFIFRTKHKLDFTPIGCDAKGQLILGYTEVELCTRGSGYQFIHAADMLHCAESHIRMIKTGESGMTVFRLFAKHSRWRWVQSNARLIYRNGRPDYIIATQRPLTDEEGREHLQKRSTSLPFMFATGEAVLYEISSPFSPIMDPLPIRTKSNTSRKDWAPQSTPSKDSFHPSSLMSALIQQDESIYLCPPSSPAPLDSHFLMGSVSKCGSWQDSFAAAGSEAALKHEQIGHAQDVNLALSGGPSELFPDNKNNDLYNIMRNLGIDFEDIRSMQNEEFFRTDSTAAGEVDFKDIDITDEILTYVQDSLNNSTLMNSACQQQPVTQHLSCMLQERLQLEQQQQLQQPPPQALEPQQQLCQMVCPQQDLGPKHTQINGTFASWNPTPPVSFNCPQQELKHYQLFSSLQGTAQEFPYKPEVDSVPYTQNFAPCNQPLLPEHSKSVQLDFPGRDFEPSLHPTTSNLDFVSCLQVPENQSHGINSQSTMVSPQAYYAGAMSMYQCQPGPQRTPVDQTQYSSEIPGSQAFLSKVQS
T2 sequence (P11499 whole entry partner): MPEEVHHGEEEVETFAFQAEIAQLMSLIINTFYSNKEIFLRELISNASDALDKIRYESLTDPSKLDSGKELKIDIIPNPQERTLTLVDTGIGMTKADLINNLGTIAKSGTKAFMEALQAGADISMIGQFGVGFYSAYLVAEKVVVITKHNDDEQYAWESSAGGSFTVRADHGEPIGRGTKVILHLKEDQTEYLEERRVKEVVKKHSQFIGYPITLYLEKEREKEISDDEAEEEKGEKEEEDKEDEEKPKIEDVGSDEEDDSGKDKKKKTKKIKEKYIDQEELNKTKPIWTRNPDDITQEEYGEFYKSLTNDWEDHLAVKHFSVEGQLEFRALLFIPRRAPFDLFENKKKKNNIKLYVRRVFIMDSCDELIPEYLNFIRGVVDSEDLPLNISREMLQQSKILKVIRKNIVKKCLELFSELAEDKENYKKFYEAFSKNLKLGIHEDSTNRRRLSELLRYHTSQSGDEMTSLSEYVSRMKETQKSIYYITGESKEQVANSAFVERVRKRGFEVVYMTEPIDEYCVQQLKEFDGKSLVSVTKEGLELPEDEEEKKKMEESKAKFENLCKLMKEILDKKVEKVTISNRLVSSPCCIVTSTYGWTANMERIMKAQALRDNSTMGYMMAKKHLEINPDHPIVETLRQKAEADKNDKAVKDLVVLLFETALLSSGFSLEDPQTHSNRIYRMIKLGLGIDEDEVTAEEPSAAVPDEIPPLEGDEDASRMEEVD
T2 sequence (O08915 whole entry partner): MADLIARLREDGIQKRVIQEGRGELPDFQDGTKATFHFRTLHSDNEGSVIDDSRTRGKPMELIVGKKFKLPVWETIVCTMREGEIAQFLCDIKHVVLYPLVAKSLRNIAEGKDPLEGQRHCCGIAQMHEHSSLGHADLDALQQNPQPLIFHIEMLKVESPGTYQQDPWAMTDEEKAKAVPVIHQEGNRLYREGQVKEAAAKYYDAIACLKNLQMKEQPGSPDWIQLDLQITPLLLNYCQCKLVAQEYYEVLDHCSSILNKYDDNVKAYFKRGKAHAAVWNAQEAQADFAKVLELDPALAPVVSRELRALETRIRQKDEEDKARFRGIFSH
Protocol: AHR binds to Dioxin Responsive Elements (DRE) upstream of genes that it activates. One measure of AHR activity is P450 CYP1A1 protein levels determined by measuring CYP1A1 enzyme activity using a luminogenic CYP1A1 luciferin-based substrate. Luciferase activity will reflect CYP1A1 activity resulting from activation of AHR in the cells.
Murine Hepa1-6 or Hepa-1c1c7 or other murine cell line, human HepG2 or other human cell line are plated in media (96-well, 384-well or other plates) and incubated overnight at 37 C in a CO2 incubator.
as §3, with “lysed and incubated with a CYP1A1 luciferase-based substrate (e.g., Luciferin-CEE)” for “lysed”, “3, 6, or 12 hours of another time point. Determination” for “determination”, “CYP1A1 enzyme activity” for “the AHR activation. Luciferase”, “P450 Glo CYP1A1 detection reagent” for “Luciferase kit”, “provide” for “provide the luciferin substrate”, “(e.g.,” for “(e.g.”

AHR [3] = biological target: T2, AHR; assay: DRE-Luciferase Reporter Assay, Hepa1.6, agonist; format: cell-based, murine; conditions: Hepa1.6 cells, agonist mode
Protocol: as §1, §2, §3

[4] = Table 2, read-out: DRE-Luc HepG2 - Agonist: Average EC50
[5] = Table 3, read-out: DRE-Luc Hepa1.6 - Agonist: Average EC50
[6] = Table 3, read-out: DRE-Luc HepG2 - Agonist: Average EC50
[7] = DRE-Luc Hepa1.6 - Agonist: Average EC50 (μM), Table 3

EC50 (AHR [1]; [4])	EC50 (AHR [2])	EC50 (AHR [3]; [5])	EC50 (AHR [1]; [6])	EC50 (AHR [3]; [7])	SMILES
< 0.01 µM	> 1 µM				CC(C)c1csc(C(=O)c2c[nH]c3ccccc23)n1 [Compound P-2]
0.01 to 0.1 µM	> 1 µM				COC(=O)c1csc(C(=O)c2c[nH]c3ccccc23)n1 [Compound P-4]
> 1 µM	> 1 µM				O=C(c1nc([C@H]2CC[C@@H](O)CC2)cs1)c1c[nH]c2ccccc12 [Compound I-47]
> 1 µM	> 1 µM				C[N+](C)(C)CCCN1CCC(c2csc(C(=O)c3c[nH]c4ccccc34)n2)CC1 [Compound I-20]
0.1 to 1 µM	> 1 µM				C[N+]1(C)CCC(c2csc(C(=O)c3c[nH]c4ccccc34)n2)CC1 [Compound I-8]
0.1 to 1 µM	> 1 µM				O=C(O)CCCN1CCC(c2csc(C(=O)c3c[nH]c4ccccc34)n2)CC1 [Compound I-5]
		> 1 µM	< 0.01 µM		COC(=O)c1nc(C(=O)c2c[nH]c3ccccc23)sc1C(F)(F)F [Compound I-54]
0.1 to 1 µM	> 1 µM				Cc1sc(C(=O)c2c[nH]c3ccccc23)nc1C(=O)OC(C)C [Compound I-11]
> 1 µM	> 1 µM				CC(C)c1csc(C(=O)c2c[nH]c3ccc(S(=O)(=O)O)cc23)n1 [Compound I-19]
			< 0.01 µM	< 0.01 µM	Nc1sc(C(=O)c2c[nH]c3ccccc23)nc1C(F)(F)F [Compound I-51]
			< 0.01 µM	0.01 to 0.1 µM	COC(=O)c1nc(C(=O)c2c[nH]c3ccccc23)sc1Cl [Compound I-55]
> 1 µM	> 1 µM				O=C(O)CCC(=O)N1CCC(c2csc(C(=O)c3c[nH]c4ccccc34)n2)CC1 [Compound I-18]
			< 0.01 µM	< 0.01 µM	O=C(c1nc(C(F)(F)F)cs1)c1c[nH]c2ccccc12 [Compound I-92]
		> 1 µM	> 1 µM		CC(C)c1csc(C(=O)c2c[nH]c3cc(C(=O)OCCOCCO)ccc23)n1 [Compound I-94]
0.1 to 1 µM	> 1 µM				CN1CCC(c2csc(C(=O)c3c[nH]c4ccccc34)n2)CC1 [Compound I-7]
	> 1 µM				CNC(=O)c1csc(C(=O)c2c[nH]c3ccccc23)n1 [Compound P-3]
			< 0.01 µM	< 0.01 µM	COc1ccc2c(C(=O)c3nc(C(C)(C)C)cs3)c[nH]c2c1 [Compound I-60]
0.1 to 1 µM	> 1 µM				O=C(c1nc([C@H]2CC[C@@H](C(=O)O)CC2)cs1)c1c[nH]c2ccccc12 [Compound I-9]
			0.01 to 0.1 µM	0.01 to 0.1 µM	COC(=O)c1csc(C(=O)c2c[nH]c3cc([N+](=O)[O-])ccc23)n1 [Compound I-90]
			> 1 µM	> 1 µM	CC(C)c1csc(C(=O)c2c[nH]c3cc(C(=O)O)ccc23)n1 [Compound I-62]
0.1 to 1 µM	> 1 µM				O=C(c1nc([C@H]2CC[C@H](C(=O)O)CC2)cs1)c1c[nH]c2ccccc12 [Compound I-4]
		> 1 µM	0.1 to 1 µM		N#Cc1nc(C(=O)c2c[nH]c3ccccc23)sc1Br [Compound I-97]
		> 1 µM	> 1 µM		COC(=O)c1nc(C(=O)c2c[nH]c3ccccc23)sc1Nc1ccccc1 [Compound I-91]
		> 1 µM	0.01 to 0.1 µM		COC(=O)c1nc(C(=O)c2c[nH]c3ccccc23)sc1N(C)C [Compound I-95]
		> 1 µM	0.01 to 0.1 µM		O=C(c1nc([C@H]2CC[C@H](O)CC2)cs1)c1c[nH]c2ccccc12 [Compound I-52]
< 0.01 µM	> 1 µM				COc1ccc2c(C(=O)c3nc(C(C)C)cs3)c[nH]c2c1 [Compound I-2]
			0.01 to 0.1 µM	0.01 to 0.1 µM	COC(=O)c1ccc2c(C(=O)c3nc(C(C)C)cs3)c[nH]c2c1 [Compound I-58]
> 1 µM	> 1 µM				C[N+](C)(C)CCC(=O)N1CCC(c2csc(C(=O)c3c[nH]c4ccccc34)n2)CC1 [Compound I-23]
0.1 to 1 µM	> 1 µM				Cc1sc(C(=O)c2c[nH]c3ccccc23)nc1C(=O)OC1CC[N+](C)(C)CC1 [Compound I-10]
			< 0.01 µM	< 0.01 µM	CNc1sc(C(=O)c2c[nH]c3ccccc23)nc1C(=O)OC [Compound I-84, Methyl 2-(1H-indole-3-carbonyl)-5-(methylamino)thiazole-4-carboxylate]
